{"source": "patent US20240279687A1", "about": "“PEPTIDE NUCLEIC ACIDS FOR SPATIOTEMPORAL CONTROL OF CRISPR-CAS BINDING” (Yale University, priority 2021, published 2024)", "key": {"dCas9-p300 / MYOD1 sgRNA [1]": {"molecular_target": "T1, dCas9-p300 / MYOD1 sgRNA (UniProt Q09472+Q99ZW2, D10A/H840A)", "T1 construct": "P2A-PuroR (C)", "assay": "dCas9-p300 MYOD1 expression in stable K562 cells, RT-qPCR", "format": "cell-based, human", "details": "250 pmol PNA", "experimental": "Stable K562-pLV-dCas9-p300 line was established from lentivirus generated from pLV-dCas9-p300-P2A-PuroR plasmid (Addgene: #83889) and Invitrogen Virapower packaging plasmids in 293FT cells (Invitrogen, R70007) and puromycin selection (2 μg/mL, Gibco). Lines were further transduced with lentivirus similarly generated with pLV-U6-UbC-eGFP-P2A-Bsr plasmids (Addgene: #83925) containing MYOD promoter targeted sgRNA sequences with blasticidin selection (5 μg/mL, Gibco, A1113903, Table 4).\n6×10^6 stable dCas9-p300/MYOD1 sgRNA expressing K562 cells (Addgene #83889, Addgene #83925), were nucleofected with 250 pmol of specified PNA (non-targeting BFP or POU5F1) using a Lonza 4D nucleofector. At each specified time point 500 μL of cells were removed from each condition flask, spun down, and frozen. […] Expression relative to the untreated parent K562 line was recorded as fold-change and calculated using the ΔΔCT method. […]\nFor RNA extractions 0.5×10^6 K562 cells were spun down, washed once with PBS, homogenized using QIAshredder columns (QIAGEN 79656) and processed using QIAGEN RNeasy mini kits (74106) before eluting in 50 μL of water. […] Expression relative to the untreated K562 parent line was recorded as fold-change and calculated from averaged CT values using the ΔΔCT method."}, "dCas9-p300 / MYOD1 sgRNA [2]": {"molecular_target": "T1, dCas9-p300 / MYOD1 sgRNA", "assay": "ChIP-qPCR of H3K27ac occupancy at the MYOD1 promoter region", "format": "cell-based, human", "details": "24 and 48 hours after PNA treatment (250 pmol), subsequent increase at 240 hours", "experimental": "K562 cells (6×10^6 cells) were diluted to 0.4×10^6 cells/mL and cross-linked with a final concentration of 1% formaldehyde (Sigma-Aldrich, 252549) for each IP. Chromatin was prepared and sheared according to manufacturer protocol using SimpleChIP Enzymatic Chromatin IP Kit (Cell Signaling, #9003) and QSONICA Q800R3 sonicator for nuclear lysis. For each condition, 10 μg of chromatin was incubated with 3 μg of H3K27ac antibody (abcam ab4729) rotating overnight at 4° C. Chromatin was incubated with 30 μL of protein G magnetic beads (Cell Signaling, #70024) and washed, eluted, reverse cross-linked, and purified according to manufacturer protocol. ChIP-qPCR reactions were conducted in technical triplicate for 2% input and IP samples using a StepOnePLUS Real-Time PCR System (Applied Biosystems), SimpleChIP Universal qPCR Mastermix (Cell Signaling, #88989), and MYOD1 target specific primers (Table 8). Percent occupancy values were calculated by percent input method from 2% input samples for each replicate."}}}
{"substance": "KKK-GCACGCCCTTTCCAAACCT-KKK (Three lysine residues flank each end, further chemistry not given here) [MYOD1 p300 PNA]", "values": [{"measurement": "time by which epigenetic-mediated MYOD1 gene upregulation was driven down", "setting": "dCas9-p300 / MYOD1 sgRNA [1]", "result": "≤ 24", "unit": "h"}, {"measurement": "time by which expression returned to the fully upregulated state", "setting": "dCas9-p300 / MYOD1 sgRNA [1]", "result": "≤ 168", "unit": "h"}, {"measurement": "H3K27ac occupancy at the MYOD1 promoter region", "setting": "dCas9-p300 / MYOD1 sgRNA [2]", "result": "significant decrease"}]}
